Assay: recombinant barcode read abundance after kanamycin selection (control-corrected) (log10(CPM+1)); higher = more efficient recombination; sequences stand for … in AGTGCAGAGAAAATCGGCCAGTTTTCTCTGCCTGCAGTCCGCATGCCGT…AGATTTATGCAGCGGACTGCCTTTCTCCCAAAGTGATAAACCGGACAGTATCATGGACCGGTTTTCCCGGTAATCCGTATTTGCAAGGTTGGTTTCACT; site = the 11-nt target
Experimental: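 Pooled E. coli target-specificity screen for the IS621 bridge recombinase. Each library plasmid pairs an 11-nt target (CT core) with a bridge RNA whose target-binding loop (9-nt LTG + 4-nt RTG) is reprogrammed; the rest of the 177-nt WT IS621 bridge RNA scaffold is fixed. The plasmid is co-electroporated with a WT donor plasmid; recombinase is induced with 0.1 mM IPTG and recombinants are selected on kanamycin. Recombinant barcodes are sequenced, converted to CPM, averaged over two biological replicates and corrected by the unselected control CPM. Molecule = full bridge RNA written as DNA: LTG = specificity nt 1-9, RTG = reverse complement of specificity nt 8-11, in the WT scaffold.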
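Also: IS621 recombinase and bridge RNA in Escherichia coli cells.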

## ACGCACACTTGGGTTCTAACCTGTTGCCT (site TCGCACACTAG)
  recombinant barcode read abundance (log10): 0.233

## ACGCACCCTTGGGTTCTAACCTGTTGCCA (site ACGAGCCCTTG)
  recombinant barcode read abundance (log10): 0.123

## ACGCACCCTTGGGTTCTAACCTGTTGCCA (site ACGCACCCTTG)
  recombinant barcode read abundance (log10): 0.379

## ACGCACGCTTGGGTTCTAACCTGTTGCGG (site ACACACCCTCC)
  recombinant barcode read abundance (log10): 0.0809

## ACGCACGCTTGGGTTCTAACCTGTTGCGG (site ACGCACGCTCC)
  recombinant barcode read abundance (log10): 0.979

## ACGCCGACTTGGGTTCTAACCTGTTGCCT (site ACGCCGACTAG)
  recombinant barcode read abundance (log10): 0.432

## ACGCCGACTTGGGTTCTAACCTGTTGCCT (site ACGCGGACTAG)
  recombinant barcode read abundance (log10): 0.285

## ACGCGAGCTTGGGTTCTAACCTGTTGCCG (site ACGCGAGCTCA)
  recombinant barcode read abundance (log10): 0.209

## ACGCGAGCTTGGGTTCTAACCTGTTGCCG (site ACGCGAGCTCC)
  recombinant barcode read abundance (log10): 0.345

## ACGCGAGCTTGGGTTCTAACCTGTTGCCG (site ACGCGAGCTCG)
  recombinant barcode read abundance (log10): 0.288

## ACGCGAGCTTGGGTTCTAACCTGTTGCCG (site ACGCGAGCTCT)
  recombinant barcode read abundance (log10): 0.215

## ACGCGAGCTTGGGTTCTAACCTGTTGCTG (site ACGCGAGCTCA)
  recombinant barcode read abundance (log10): 0.0871

## ACGCGAGCTTGGGTTCTAACCTGTTGCTG (site ACGCGAGCTCC)
  recombinant barcode read abundance (log10): 0

## ACGCGAGCTTGGGTTCTAACCTGTTGCTG (site ACGCGAGCTCG)
  recombinant barcode read abundance (log10): 0.14

## ACGCGAGCTTGGGTTCTAACCTGTTGCTG (site ACGCGAGCTCT)
  recombinant barcode read abundance (log10): 0.187

## ACGCGTCCTTGGGTTCTAACCTGTTGCCG (site ACGCGTCCTCG)
  recombinant barcode read abundance (log10): 0.263

## ACGCGTCCTTGGGTTCTAACCTGTTGCCG (site TCGCGTCCTCG)
  recombinant barcode read abundance (log10): 0.355

## ACGCTAGCTTGGGTTCTAACCTGTTGCCT (site ACGCTAGCTAG)
  recombinant barcode read abundance (log10): 0.357

## ACGCTAGCTTGGGTTCTAACCTGTTGCCT (site CCGCTAGCTAG)
  recombinant barcode read abundance (log10): 0.138

## ACGCTAGCTTGGGTTCTAACCTGTTGCCT (site GCGCTAGCTAG)
  recombinant barcode read abundance (log10): 0.226

## ACGCTAGCTTGGGTTCTAACCTGTTGCCT (site TCGCTAGCTAG)
  recombinant barcode read abundance (log10): 0.0462

## ACGCTGGCTTGGGTTCTAACCTGTTGCCT (site ACACTGGCTAG)
  recombinant barcode read abundance (log10): 0.386

## ACGCTGGCTTGGGTTCTAACCTGTTGCCT (site ACCCTGGCTAG)
  recombinant barcode read abundance (log10): 0.0594

## ACGCTGGCTTGGGTTCTAACCTGTTGCCT (site ACGCTGGCTAG)
  recombinant barcode read abundance (log10): 0.381

## ACGCTGGCTTGGGTTCTAACCTGTTGCCT (site ACTCTGGCTAG)
  recombinant barcode read abundance (log10): 0.0925

## ACGGGATCTTGGGTTCTAACCTGTTGCCT (site ACGGGATCTAG)
  recombinant barcode read abundance (log10): 1.57

## ACGGGATCTTGGGTTCTAACCTGTTGCCT (site CCGGGATCTAG)
  recombinant barcode read abundance (log10): 0.24

## ACGGGATCTTGGGTTCTAACCTGTTGCCT (site GCGGGATCTAG)
  recombinant barcode read abundance (log10): 0.129

## ACGGGATCTTGGGTTCTAACCTGTTGCCT (site TCGGGATCTAG)
  recombinant barcode read abundance (log10): 0.0975

## ACGGGTCCTTGGGTTCTAACCTGTTGCAG (site ACGGGTCCTCT)
  recombinant barcode read abundance (log10): 3.09

## ACGGGTCCTTGGGTTCTAACCTGTTGCAG (site GGCAAGGCTAG)
  recombinant barcode read abundance (log10): 0.0641

## ACGGGTTCTTGGGTTCTAACCTGTTGCCT (site ACGGGTTCTAG)
  recombinant barcode read abundance (log10): 2.46

## ACGGGTTCTTGGGTTCTAACCTGTTGCCT (site TCCGGTTCTAG)
  recombinant barcode read abundance (log10): 0.107

## ACGGTCACTTGGGTTCTAACCTGTTGCCT (site AAGGTCACTAG)
  recombinant barcode read abundance (log10): 0.331

## ACGGTCACTTGGGTTCTAACCTGTTGCCT (site ACGGTCACTAG)
  recombinant barcode read abundance (log10): 2.95

## ACGGTCACTTGGGTTCTAACCTGTTGCCT (site AGGGTCACTAG)
  recombinant barcode read abundance (log10): 0.264

## ACGGTCACTTGGGTTCTAACCTGTTGCCT (site ATGGTCACTAG)
  recombinant barcode read abundance (log10): 0.869

## ACGGTGACTTGGGTTCTAACCTGTTGCCT (site ACGGTGACTAG)
  recombinant barcode read abundance (log10): 2.24

## ACGGTGACTTGGGTTCTAACCTGTTGCCT (site CCGGTGACTAG)
  recombinant barcode read abundance (log10): 0.298

## ACGGTGACTTGGGTTCTAACCTGTTGCCT (site GCGGTGACTAG)
  recombinant barcode read abundance (log10): 0.0376

## ACGGTGACTTGGGTTCTAACCTGTTGCCT (site TCGGTGACTAG)
  recombinant barcode read abundance (log10): 0.0684
